According to patent US20250243171A1, “QUINAZOLINE COMPOUNDS FOR TREATMENT OF DISEASE” (Arthrosi Therapeutics, Inc., priority 2021, published 2025):

How the values were obtained:
Assay in all cases: EC50 assay: Ba/F3 stable cell proliferation (CCK-8, 72 h)
Assay type in all cases: cell-based
Ba/F3 stable cells [1] = target: T1, Ba/F3 stable cells (Homo sapiens, UniProt P00533, DUP767-769, cells depend on it); conditions: Ba/F3-EGFR V769-D770insASV cells
T1 construct: EC50 Ba/F3-EGFR V769-D770insASV; other: Ba/F3-EGFR V769-D770insASV cells, 72 h, CCK-8
Method: (§1) 4,000 Ba/F3 stable cells/90 μL/well were plated onto 96-well cell culture plate (Grenier, Cat.No. 655180) and incubated at 37° C. with a humidified atmosphere of 5% CO2 for 2 h. Then the cells were treated with 10 μL compounds at serial titration. The final DMSO concentration is 0.1%. The cells treated with 0.1% DMSO (Vetec, Cat.No.V900090) as a positive control (Max), and medium with 0.1% DMSO was as a negative control (Min). Incubated the cells at 37° C. for 72 h. 10 μL the cell proliferation reagent CCK-8 (Dojindo, Cat.No. CK04 1000T) was added into each well and incubated the plate at 37° C. for 4 hours, the GD value was measured by SPECTRAmax plus (Molecular Devices) at 450 nm. Data processing with Graphpad 7.0.

Ba/F3 stable cells [2] = target: T2, Ba/F3 stable cells (Homo sapiens, UniProt P00533, DUP768-770, cells depend on it); conditions: Ba/F3-EGFR D770-N771insSVD cells
T2 construct: EC50 Ba/F3-EGFR D770-N771insSVD; other: Ba/F3-EGFR D770-N771insSVD cells, 72 h, CCK-8
Method: as §1

Ba/F3 stable cells [3] = target: T3, Ba/F3 stable cells (Homo sapiens, UniProt P00533, DUP771-773, cells depend on it); conditions: Ba/F3-EGFR H773-V774insNPH cells
T3 construct: EC50 Ba/F3-EGFR H773-V774insNPH; other: Ba/F3-EGFR H773-V774insNPH cells, 72 h, CCK-8
T3 sequence (P00533 with tags, fused parts or gaps DUP771-773): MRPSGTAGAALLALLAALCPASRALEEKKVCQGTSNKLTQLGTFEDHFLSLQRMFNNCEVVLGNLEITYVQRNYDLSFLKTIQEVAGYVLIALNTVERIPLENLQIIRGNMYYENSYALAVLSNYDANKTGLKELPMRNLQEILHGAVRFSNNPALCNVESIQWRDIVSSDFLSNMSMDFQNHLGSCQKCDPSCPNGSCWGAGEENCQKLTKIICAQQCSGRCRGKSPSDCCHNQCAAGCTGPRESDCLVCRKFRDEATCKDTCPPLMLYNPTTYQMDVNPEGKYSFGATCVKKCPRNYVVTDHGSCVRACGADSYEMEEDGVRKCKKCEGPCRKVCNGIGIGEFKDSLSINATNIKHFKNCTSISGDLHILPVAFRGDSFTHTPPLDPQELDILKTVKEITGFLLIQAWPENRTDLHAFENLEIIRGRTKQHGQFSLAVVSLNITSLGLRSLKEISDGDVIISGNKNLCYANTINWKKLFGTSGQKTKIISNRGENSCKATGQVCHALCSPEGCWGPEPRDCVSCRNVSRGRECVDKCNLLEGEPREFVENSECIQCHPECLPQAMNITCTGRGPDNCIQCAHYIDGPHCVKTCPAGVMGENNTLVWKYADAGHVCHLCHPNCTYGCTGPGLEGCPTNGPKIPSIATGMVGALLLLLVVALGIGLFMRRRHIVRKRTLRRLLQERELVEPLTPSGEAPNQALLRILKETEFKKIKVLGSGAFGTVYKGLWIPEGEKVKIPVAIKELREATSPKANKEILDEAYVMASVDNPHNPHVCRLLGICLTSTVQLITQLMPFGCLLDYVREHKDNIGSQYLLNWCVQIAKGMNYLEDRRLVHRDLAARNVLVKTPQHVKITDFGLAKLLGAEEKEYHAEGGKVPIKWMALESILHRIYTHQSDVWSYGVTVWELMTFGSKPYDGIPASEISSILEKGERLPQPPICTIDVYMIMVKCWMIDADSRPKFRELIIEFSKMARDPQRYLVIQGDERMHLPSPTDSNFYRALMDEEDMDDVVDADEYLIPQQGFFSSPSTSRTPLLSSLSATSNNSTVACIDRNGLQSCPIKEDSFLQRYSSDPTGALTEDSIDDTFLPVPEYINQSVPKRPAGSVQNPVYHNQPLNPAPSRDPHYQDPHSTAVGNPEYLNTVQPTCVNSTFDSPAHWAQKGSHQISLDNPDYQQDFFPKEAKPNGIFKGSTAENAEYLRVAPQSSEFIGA
Method: as §1

Ba/F3 stable cells [4] = target: T4, Ba/F3 stable cells (Homo sapiens, UniProt P00533, INS763FQEA, cells depend on it); conditions: Ba/F3-EGFR A763-Y764insFQEA cells
T4 construct: EC50 Ba/F3-EGFR A763-Y764insFQEA; other: Ba/F3-EGFR A763-Y764insFQEA cells, 72 h, CCK-8
T4 sequence (P00533 with tags, fused parts or gaps INS763FQEA): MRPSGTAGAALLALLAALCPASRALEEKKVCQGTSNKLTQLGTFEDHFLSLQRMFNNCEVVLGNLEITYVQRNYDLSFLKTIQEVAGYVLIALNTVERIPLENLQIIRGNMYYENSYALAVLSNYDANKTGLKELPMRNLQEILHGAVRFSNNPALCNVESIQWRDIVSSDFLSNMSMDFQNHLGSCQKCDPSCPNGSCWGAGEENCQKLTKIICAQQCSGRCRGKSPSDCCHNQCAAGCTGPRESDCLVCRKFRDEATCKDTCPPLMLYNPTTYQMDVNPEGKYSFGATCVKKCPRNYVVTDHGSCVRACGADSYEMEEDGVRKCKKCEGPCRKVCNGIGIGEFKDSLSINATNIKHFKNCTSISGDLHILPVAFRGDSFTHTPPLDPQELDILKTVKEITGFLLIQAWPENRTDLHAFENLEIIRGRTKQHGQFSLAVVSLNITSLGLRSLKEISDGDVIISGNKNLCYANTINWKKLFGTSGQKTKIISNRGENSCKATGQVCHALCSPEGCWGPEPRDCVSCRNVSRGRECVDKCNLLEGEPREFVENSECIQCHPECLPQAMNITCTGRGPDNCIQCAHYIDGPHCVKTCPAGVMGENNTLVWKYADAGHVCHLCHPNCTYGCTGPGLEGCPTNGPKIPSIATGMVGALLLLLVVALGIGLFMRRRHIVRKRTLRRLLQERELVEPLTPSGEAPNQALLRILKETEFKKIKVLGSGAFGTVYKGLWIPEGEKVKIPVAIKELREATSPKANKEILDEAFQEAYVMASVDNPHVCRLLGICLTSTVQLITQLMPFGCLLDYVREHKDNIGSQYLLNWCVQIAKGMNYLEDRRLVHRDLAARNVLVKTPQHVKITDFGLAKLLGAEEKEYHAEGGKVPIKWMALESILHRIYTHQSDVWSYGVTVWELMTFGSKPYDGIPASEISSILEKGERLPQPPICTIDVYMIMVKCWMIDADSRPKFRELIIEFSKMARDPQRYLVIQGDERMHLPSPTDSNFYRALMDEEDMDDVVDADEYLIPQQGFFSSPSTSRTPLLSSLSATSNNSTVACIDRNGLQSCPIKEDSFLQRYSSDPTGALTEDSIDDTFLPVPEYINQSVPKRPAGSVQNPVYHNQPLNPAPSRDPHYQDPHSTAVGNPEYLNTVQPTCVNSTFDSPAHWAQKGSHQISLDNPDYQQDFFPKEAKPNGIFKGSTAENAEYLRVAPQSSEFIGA
Method: as §1

Ba/F3 stable cells [5] = target: T5, Ba/F3 stable cells (Homo sapiens, UniProt P00533, T790M/L858R, cells depend on it); conditions: Ba/F3-EGFR L858R-T790M cells
T5 construct: EC50 Ba/F3-EGFR L858R-T790M; other: Ba/F3-EGFR L858R-T790M cells, 72 h, CCK-8
T5 sequence (P00533 whole entry T790M/L858R): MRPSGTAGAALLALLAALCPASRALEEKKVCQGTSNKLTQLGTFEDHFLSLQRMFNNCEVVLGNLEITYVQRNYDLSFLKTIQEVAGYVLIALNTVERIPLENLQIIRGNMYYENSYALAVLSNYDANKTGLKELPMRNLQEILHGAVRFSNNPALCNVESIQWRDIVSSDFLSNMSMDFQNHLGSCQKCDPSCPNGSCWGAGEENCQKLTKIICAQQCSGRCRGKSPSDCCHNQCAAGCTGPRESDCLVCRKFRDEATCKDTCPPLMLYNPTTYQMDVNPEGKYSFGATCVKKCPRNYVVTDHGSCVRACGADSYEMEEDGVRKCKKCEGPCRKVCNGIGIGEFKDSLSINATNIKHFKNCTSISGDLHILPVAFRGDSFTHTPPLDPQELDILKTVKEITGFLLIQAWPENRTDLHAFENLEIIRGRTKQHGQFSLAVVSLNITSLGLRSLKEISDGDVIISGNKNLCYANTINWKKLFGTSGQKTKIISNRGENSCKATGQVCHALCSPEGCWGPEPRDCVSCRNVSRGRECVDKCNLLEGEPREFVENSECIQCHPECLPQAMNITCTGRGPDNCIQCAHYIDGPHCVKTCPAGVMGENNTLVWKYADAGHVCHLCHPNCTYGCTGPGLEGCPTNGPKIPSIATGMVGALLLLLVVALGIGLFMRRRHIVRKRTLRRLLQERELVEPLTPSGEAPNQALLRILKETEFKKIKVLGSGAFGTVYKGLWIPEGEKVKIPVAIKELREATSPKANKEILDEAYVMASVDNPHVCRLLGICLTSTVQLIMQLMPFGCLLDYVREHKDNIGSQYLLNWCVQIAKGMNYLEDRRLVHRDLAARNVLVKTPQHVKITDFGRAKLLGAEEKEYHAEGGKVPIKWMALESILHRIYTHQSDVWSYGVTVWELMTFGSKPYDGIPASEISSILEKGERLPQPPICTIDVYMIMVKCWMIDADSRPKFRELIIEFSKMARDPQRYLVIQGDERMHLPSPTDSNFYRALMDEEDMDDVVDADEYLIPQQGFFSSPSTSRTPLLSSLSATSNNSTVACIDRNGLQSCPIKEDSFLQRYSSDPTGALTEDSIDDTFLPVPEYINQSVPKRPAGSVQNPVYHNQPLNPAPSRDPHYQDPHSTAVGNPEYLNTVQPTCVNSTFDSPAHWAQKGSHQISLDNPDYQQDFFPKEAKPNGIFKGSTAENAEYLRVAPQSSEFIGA
Method: as §1

Ba/F3 stable cells [6] = target: T6, Ba/F3 stable cells (Homo sapiens, UniProt P04626, DUP772-775, cells depend on it); conditions: Ba/F3-HER2 A775-G776insYVMA cells
T6 construct: EC50 Ba/F3-HER2 A775-G776insYVMA; other: Ba/F3-HER2 A775-G776insYVMA cells, 72 h, CCK-8
T6 sequence (P04626 with tags, fused parts or gaps DUP772-775): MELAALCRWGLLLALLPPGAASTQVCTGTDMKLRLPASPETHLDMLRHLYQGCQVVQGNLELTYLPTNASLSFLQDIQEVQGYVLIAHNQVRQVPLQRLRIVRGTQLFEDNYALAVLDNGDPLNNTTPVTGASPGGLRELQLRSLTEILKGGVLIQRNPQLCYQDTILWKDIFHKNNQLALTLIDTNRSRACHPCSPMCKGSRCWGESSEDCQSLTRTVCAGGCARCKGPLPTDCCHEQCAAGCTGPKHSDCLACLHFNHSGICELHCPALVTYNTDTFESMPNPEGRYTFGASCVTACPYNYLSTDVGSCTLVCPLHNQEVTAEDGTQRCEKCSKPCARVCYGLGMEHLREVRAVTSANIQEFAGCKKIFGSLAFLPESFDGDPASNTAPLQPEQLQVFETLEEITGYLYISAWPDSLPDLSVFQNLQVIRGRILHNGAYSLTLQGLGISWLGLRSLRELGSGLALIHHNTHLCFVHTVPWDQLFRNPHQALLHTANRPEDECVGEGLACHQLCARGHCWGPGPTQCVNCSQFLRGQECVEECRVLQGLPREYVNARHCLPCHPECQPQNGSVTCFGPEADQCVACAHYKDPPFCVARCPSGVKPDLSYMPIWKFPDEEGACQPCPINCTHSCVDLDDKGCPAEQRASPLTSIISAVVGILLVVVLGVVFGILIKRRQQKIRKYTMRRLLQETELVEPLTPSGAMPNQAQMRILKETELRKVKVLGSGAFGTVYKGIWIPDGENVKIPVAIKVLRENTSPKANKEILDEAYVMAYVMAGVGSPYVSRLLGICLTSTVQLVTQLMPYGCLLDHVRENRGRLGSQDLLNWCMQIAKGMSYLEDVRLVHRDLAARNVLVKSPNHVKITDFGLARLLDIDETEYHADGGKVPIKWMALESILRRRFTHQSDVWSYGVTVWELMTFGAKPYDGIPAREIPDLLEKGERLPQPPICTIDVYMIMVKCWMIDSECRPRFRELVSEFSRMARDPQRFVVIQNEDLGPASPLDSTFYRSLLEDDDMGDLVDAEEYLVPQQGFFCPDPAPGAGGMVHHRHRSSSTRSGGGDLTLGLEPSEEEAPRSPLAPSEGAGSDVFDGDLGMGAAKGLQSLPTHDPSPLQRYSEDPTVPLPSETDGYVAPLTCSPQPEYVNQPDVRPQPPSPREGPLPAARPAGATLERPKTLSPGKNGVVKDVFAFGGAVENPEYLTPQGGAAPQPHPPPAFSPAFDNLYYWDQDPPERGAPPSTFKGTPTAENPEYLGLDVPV
Method: as §1

[2H]C([2H])([2H])Oc1cc2ncnc(Nc3ccc(Cl)c(Cl)c3F)c2cc1C1CN(C(=O)C(=C)F)C1 [Compound 39, 1-(3-(4-((3,4-dichloro-2-fluorophenyl)amino)-7-(methoxy-d3)quinazolin-6-yl)azetidin-1-yl)-2-fluoroprop-2-en-1-one]
EC50 (Ba/F3 stable cells [1]): 200 to 1000 nM | EC50 (Ba/F3 stable cells [2]): > 1000 nM | EC50 (Ba/F3 stable cells [3]): > 1000 nM | EC50 (Ba/F3 stable cells [4]): ≤ 200 nM | EC50 (Ba/F3 stable cells [5]): > 1000 nM | EC50 (Ba/F3 stable cells [6]): > 1000 nM

C=C(F)C(=O)N[C@H]1C[C@@H](Oc2cc3c(Nc4ccc(Cl)c(Cl)c4F)ncnc3cc2OC)C1 [Compound 40, N-((1s,3s)-3-((4-((3,4-dichloro-2-fluorophenyl)amino)-7-methoxyquinazolin-6-yl)oxy)cyclobutyl)-2-fluoroacrylamide]
EC50 (Ba/F3 stable cells [1]): ≤ 200 nM | EC50 (Ba/F3 stable cells [2]): 200 to 1000 nM | EC50 (Ba/F3 stable cells [3]): 200 to 1000 nM | EC50 (Ba/F3 stable cells [4]): ≤ 200 nM | EC50 (Ba/F3 stable cells [5]): 200 to 1000 nM | EC50 (Ba/F3 stable cells [6]): 200 to 1000 nM

C#CC(=O)N1CC(c2cc3c(Nc4ccc(OCc5ccccc5)c(Cl)c4F)ncnc3cc2OC)C1 [Compound 41, 1-(3-(4-((4-(benzyloxy)-3-chloro-2-fluorophenyl)amino)-7-methoxyquinazolin-6-yl)azetidin-1-yl)prop-2-yn-1-one]
EC50 (Ba/F3 stable cells [1]): > 1000 nM | EC50 (Ba/F3 stable cells [2]): > 1000 nM | EC50 (Ba/F3 stable cells [3]): > 1000 nM | EC50 (Ba/F3 stable cells [4]): 200 to 1000 nM | EC50 (Ba/F3 stable cells [5]): > 1000 nM | EC50 (Ba/F3 stable cells [6]): > 1000 nM

COc1cc2ncnc(Nc3ccc(Cl)c(Cl)c3F)c2cc1OC1CC(NC(=O)/C=C/CN(C)C)C1 (stereo not drawn) [Compound 42, (E)-N-(3-((4-((3,4-dichloro-2-fluorophenyl)amino)-7-methoxyquinazolin-6-yl)oxy)cyclobutyl)-4-(dimethylamino)but-2-enamide]
EC50 (Ba/F3 stable cells [1]): ≤ 200 nM | EC50 (Ba/F3 stable cells [2]): 200 to 1000 nM | EC50 (Ba/F3 stable cells [3]): 200 to 1000 nM | EC50 (Ba/F3 stable cells [4]): ≤ 200 nM | EC50 (Ba/F3 stable cells [5]): > 1000 nM | EC50 (Ba/F3 stable cells [6]): 200 to 1000 nM

CC#CC(=O)NC1CC(Oc2cc3c(Nc4ccc(Cl)c(Cl)c4F)ncnc3cc2OC)C1 (stereo not drawn) [Compound 43, N-(3-((4-((3,4-dichloro-2-fluorophenyl)amino)-7-methoxyquinazolin-6-yl)oxy)cyclobutyl)but-2-ynamide]
EC50 (Ba/F3 stable cells [1]): 200 to 1000 nM | EC50 (Ba/F3 stable cells [2]): 200 to 1000 nM | EC50 (Ba/F3 stable cells [3]): > 1000 nM | EC50 (Ba/F3 stable cells [4]): ≤ 200 nM | EC50 (Ba/F3 stable cells [5]): > 1000 nM | EC50 (Ba/F3 stable cells [6]): 200 to 1000 nM

C#CC(=O)N[C@H]1C[C@H](Oc2cc3c(Nc4cccc5c4CCC5)ncnc3cc2OC)C1 [Compound 44, N-((1r,3r)-3-((4-((2,3-dihydro-1H-inden-4-yl)amino)-7-methoxyquinazolin-6-yl)oxy)cyclobutyl)propiolamide]
EC50 (Ba/F3 stable cells [1]): ≤ 200 nM | EC50 (Ba/F3 stable cells [2]): 200 to 1000 nM | EC50 (Ba/F3 stable cells [3]): ≤ 200 nM | EC50 (Ba/F3 stable cells [4]): ≤ 200 nM | EC50 (Ba/F3 stable cells [5]): 200 to 1000 nM | EC50 (Ba/F3 stable cells [6]): 200 to 1000 nM

C#CC(=O)N[C@H]1C[C@@H](Oc2cc3c(Nc4cccc5c4CCC5)ncnc3cc2OC)C1 [Compound 45, N-((1s,3s)-3-((4-((2,3-dihydro-1H-inden-4-yl)amino)-7-methoxyquinazolin-6-yl)oxy)cyclobutyl)propiolamide]
EC50 (Ba/F3 stable cells [1]): > 1000 nM | EC50 (Ba/F3 stable cells [2]): > 1000 nM | EC50 (Ba/F3 stable cells [3]): > 1000 nM | EC50 (Ba/F3 stable cells [4]): ≤ 200 nM | EC50 (Ba/F3 stable cells [5]): > 1000 nM | EC50 (Ba/F3 stable cells [6]): > 1000 nM

C#CC(=O)NC1CC(Oc2cc3c(Nc4cccc5ccccc45)ncnc3cc2OC)C1 (stereo not drawn) [Compound 46, N-(3-((7-methoxy-4-(naphthalen-1-ylamino)quinazolin-6-yl)oxy)cyclobutyl)propiolamide]
EC50 (Ba/F3 stable cells [1]): ≤ 200 nM | EC50 (Ba/F3 stable cells [2]): 200 to 1000 nM | EC50 (Ba/F3 stable cells [3]): ≤ 200 nM | EC50 (Ba/F3 stable cells [4]): ≤ 200 nM | EC50 (Ba/F3 stable cells [5]): ≤ 200 nM | EC50 (Ba/F3 stable cells [6]): ≤ 200 nM

C#CC(=O)N[C@H]1C[C@@H](Oc2cc3c(Nc4cccc5ccccc45)ncnc3cc2OC)C1 [Compound 47, N-((1s,3s)-3-((7-methoxy-4-(naphthalen-1-ylamino)quinazolin-6-yl)oxy)cyclobutyl)propiolamide]
EC50 (Ba/F3 stable cells [1]): ≤ 200 nM | EC50 (Ba/F3 stable cells [2]): ≤ 200 nM | EC50 (Ba/F3 stable cells [3]): ≤ 200 nM | EC50 (Ba/F3 stable cells [4]): ≤ 200 nM | EC50 (Ba/F3 stable cells [5]): ≤ 200 nM | EC50 (Ba/F3 stable cells [6]): 200 to 1000 nM
